The text below walks through data of patent publication US20260216197A1, “WRN HELICASE INHIBITOR” (SUZHOU PUHE BIOPHARMA CO., LTD., priority 2022, published 2026).

This test deals with MSS colorectal cancer HT-29 cell line. The experiment in a line: 2D anti-proliferative activity, MSS HT-29 cells (CTG, 5 days). Conditions: Homo sapiens, 120 h. Type of test: cell-based. An outline of the steps:
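HT-29 cells in McCoy's 5A with 10% FBS exposed to compound for 5 days at 37° C, 5% CO2 in 384-well format. Viable cells read as ATP luminescence (CellTiter-Glo) after 30 min.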

The molecule `CCc1c(N2CCN(C(=O)c3ncnc(C)c3O)CC2)c(=O)n2nc(C3=CCOCC3)nc2n1CC(=O)Nc1ccc(C(F)(F)F)c2ccoc12` [Compound H22] had an IC50 of over 10000 nM.
